# Data published in publication PMC9502403, “Saquayamycin B1 Suppresses Proliferation, Invasion, and Migration by Inhibiting PI3K/AKT Signaling Pathway in Human Colorectal Cancer Cells” (Marine Drugs, 2022).
# Key:
# SW480 cells [1] = assay: MTT cytotoxicity assay, SW480; type: cell-based; settings: Homo sapiens, 48 h, mean ± SD
# Method: (§1) Human CRC cell lines SW480 (BeNa Culture Collection, Xinyang, China), SW620 (Procell Life Science & Technology Co., Ltd., Wuhan, China), and HT-29 (Zhong Qiao Xin Zhou Biotechnology Co., Ltd., Shanghai, China) were cultured in RPMI 1640 Medium (Livning Biotechnology Co., Ltd., Beijing, China), LoVo cells (Zhong Qiao Xin Zhou Biotechnology Co., Ltd., Shanghai, China) were cultured in DMEM/F12 (Livning Biotechnology Co., Ltd., Beijing, China), and normal human liver cell line QSG-7701 (Beyotime Institute of Biotechnology, Shanghai, China) was cultured in DMEM/high glucose (Livning Biotechnology Co., Ltd., Beijing, China) containing 10% fetal bovine serum (FBS) (Gibco Life Technologies, San Jose, CA, USA). The cells were cultured in a constant temperature incubator at 37 °C, 5% CO2.
# (§2) The cytotoxicity of Mor B, Saq B1, Saq B, and Lan N on CRC and the normal human liver cells was detected by MTT (3-(4,5-dimethylthiazol)-2,5-diphenyltetrazolium bromide) assay (Sigma-Aldrich Corp., St. Louis, MO, USA). Cells were evenly distributed in 96-well plates overnight and then treated with Mor B, Saq B1, Saq B, and Lan N at different concentrations for 48 h. The negative control group was treated with the same concentration of DMSO. After treatment, 10 μL of the 5 mg/mL MTT solution was added to each well in the incubator for 4 h. Then, the MTT solution was removed and 150 μL DMSO was added into each hole to dissolve the purple crystal. The absorbance of each well was read at 570 nm with a microplate reader, and the IC50 values were calculated using the software. Each sample was measured three times independently.
# SW620 cells [2] = assay: MTT cytotoxicity assay, SW620; type: cell-based; settings: Homo sapiens, SW-620, 48 h, mean ± SD
# Method: as §1, §2
# LoVo cells = assay: MTT cytotoxicity assay, LoVo; type: cell-based; settings: Homo sapiens, 48 h, mean ± SD
# Method: as §1, §2
# HT-29 cells = assay: MTT cytotoxicity assay, HT-29; type: cell-based; settings: Homo sapiens, 48 h, mean ± SD
# Method: as §1, §2
# QSG-7701 cells = assay: MTT cytotoxicity assay, QSG-7701 normal liver cells; type: cell-based; settings: QSG7701, 48 h, normal human liver cells, mean ± SD
# Method: as §1, §2
# CRC cells = assay: MTT cytotoxicity assay, CRC cells (range over lines); type: cell-based; settings: Homo sapiens, range over SW480, SW620, LoVo, HT-29
# Method: as §1
# as §2, with “The negative control group was treated with the same concentration of DMSO. After treatment, 10 μL of the 5 mg/mL MTT solution was added to each well in the incubator for 4 h. Then, the MTT solution was removed and 150 μL DMSO was added into each hole to dissolve the purple crystal.” left out
# SW480 cells [3] = assay: Annexin V-FITC/PI flow cytometry of apoptosis, SW480; type: cell-based, human
# Text: (§3) Annexin V-FITC and Propidium Iodide (PI) apoptosis-detection kits were used to determine the specific proportion of apoptotic cells. Annexin V-FITC is used to detect phosphatidylserine, which moves from the inside of the membrane to the surface of the cell membrane during apoptosis, producing green fluorescence. Late apoptotic cells whose cell membrane integrity is destroyed can be stained with PI, producing red fluorescence.
# (§4) An Annexin V-FITC apoptosis detection kit was used to detect cell apoptosis by flow cytometry after staining. The cells were placed in 6-well plates and digested by trypsin (Solarbio, Beijing, China) after Saq B1 treatment. Then, the cells were washed with PBS and centrifuged for 5 min, and the supernatant was discarded. Annexin V-FITC binding buffer was added to gently suspend the cells. Annexin V-FITC and PI were successively added and slowly mixed. Apoptosis was immediately assessed by flow cytometry (Becton, Dickinson and Company, San Jose, CA, USA). Each sample was measured three times.
# SW620 cells [4] = assay: Annexin V-FITC/PI flow cytometry of apoptosis, SW620; type: cell-based, human
# Text: as §3, §4
# PI3K/AKT pathway = assay: Western blot of PI3K, AKT, p-AKT; type: cell-based, human; settings: SW480 and SW620 cells, 0.1 μM, 0.2 μM, and 0.3 μM
# Method: (§5) Western blotting was used to reveal changes in the expression of specific proteins after Saq B1 treatment. The cells treated with varying doses of Saq B1 were lysed with RIPA buffer (Beyotime Biotech, Shanghai, China) to obtain total protein, which was quantified using a BCA kit. The proteins with different molecular weights were separated by SDS-PAGE electrophoresis. The protein was transferred to a PVDF membrane and sealed with 5% skim milk for 1 h. After washing with TBS-T buffer, the respective primary antibodies were added to the membrane and incubated at 4 °C overnight. Next, the PVDF membrane was washed with TBS-T buffer three times and incubated with antimouse IgG or antirabbit IgG secondary antibody (CST, Inc., Beverly, MA, USA) for 1 h at room temperature. Proteins on the membranes were visualized using the enhanced chemiluminescence detection kit (ECL®, Amersham Biosciences, Little Chalfont, UK).
# Bax/Bcl-2 = assay: Western blot of Bax and Bcl-2; type: cell-based, human; settings: SW480 and SW620 cells
# Method: as §5
# SW480 cells [5] = assay: Colony formation assay; type: cell-based, human; settings: SW480, with increasing concentration, 14 days
# Text: The cell colony formation assay is an important technique for detecting cell proliferation, invasiveness, and drug sensitivity. After digestion of trypsin in the logarithmic growth phase, the cells were inoculated on 6-well plates at a density of 700 cells/well. The medium was refreshed every 3 days and treatment continued for 14 days. Finally, the colonies were fixed with 4% paraformaldehyde and stained with crystal violet. Colonies with >50 cells were counted and photographed.
# SW480 cells [6] = assay: Wound-healing assay; type: cell-based, human; settings: SW480, with increasing dose, 48 h
# Method: To determine the migratory ability of cells in vitro, we adopted the cell scratch test. Cells were placed in a 6-well plate at a density of 5 × 10^4 cells per well. When the cells had adhered to 90% of each well, we made equal-width scratches at the same position in each hole with sterile micropipette tips. Each well was washed three times with PBS to remove suspended cells. The cells in the well were treated with different concentrations of Saq B1. The wound-healing rate (%) = (1 − (the width of the assay group/the width of the control group)) × 100% was calculated according to the width of the scratches in each group to evaluate the migratory ability of the cells. Each sample was measured three times.
# SW480 cells [7] = assay: Transwell migration and invasion assay; type: cell-based, human
# Method: The transwell assay is used to test the ability of cells to invade and metastasize. In the invasion assay, we placed transwell chambers in a 24-well plate, and cells were suspended in 200 μL serum-free medium at the density of 1 × 10^5 cells/mL. Then, cells were added to an upper chamber containing Matrigel, while 700 μL of the medium containing 20% FBS as a chemo-attractant was added to the lower chamber. The cells were treated with various doses of Saq B1 and incubated with 5% CO2 at 37 °C. Thereafter, all media were discarded, and the cells in the lower chamber were fixed in 4% paraformaldehyde for 20 min and placed in 0.5% crystal violet dye for 20 min. After washing the cells with PBS three times, five regions were selected randomly under the microscope, pictures were taken, and the number of transmembrane cells was counted. The migration assay followed the same procedure as the invasion assay but without Matrigel. Each sample was evaluated independently three times.
# [8] = test system: E-cadherin, N-cadherin, and vimentin; assay: Western blot of EMT markers; type: cell-based, human; settings: SW480 and SW620 cells, 0–0.3 μmol/L
# Method: as §5
structure (smiles),measurement,setting,value
C[C@@H]1O[C@H]2O[C@@H]3[C@@H](C)O[C@@H](c4ccc5c(c4O)C(=O)C4=C(C5=O)[C@@]5(O)C(=O)C[C@](C)(O)C[C@@]5(O)C=C4)C[C@H]3O[C@H]2CC1=O [Saquayamycin B1],IC50,SW480 cells [1],0.18 ± 0.01 µM
same,IC50,SW620 cells [2],0.26 ± 0.03 µM
same,IC50,LoVo cells,0.63 ± 0.07 µM
same,IC50,HT-29 cells,0.84 ± 0.05 µM
same,IC50,QSG-7701 cells,1.57 ± 0.12 µM
same,IC50,CRC cells,0.18 to 0.84 µM
same,apoptosis rate,"SW480 cells [3]; SW480, Saq B1 0.1 μM",24.31%
same,apoptosis rate,"SW480 cells [3]; SW480, Saq B1 0.2 μM",30.75%
same,apoptosis rate,"SW480 cells [3]; SW480, Saq B1 0.3 μM",40.12%
same,apoptosis rate,"SW620 cells [4]; SW620, Saq B1 0.1 μM",8.11%
same,apoptosis rate,"SW620 cells [4]; SW620, Saq B1 0.2 μM",12.67%
same,apoptosis rate,"SW620 cells [4]; SW620, Saq B1 0.3 μM",30.69%
same,protein expression level of AKT,PI3K/AKT pathway,basically unchanged
same,protein expression level of PI3K,PI3K/AKT pathway,decreased
same,protein expression level of p-AKT,PI3K/AKT pathway,decreased
same,expression of Bax/Bcl-2,Bax/Bcl-2,increased
same,size and number of cell clones,SW480 cells [5],declined
same,wound-healing rate of cells,SW480 cells [6],decreased gradually
same,cellular migration and invasion,SW480 cells [7],dose-dependent inhibition
same,expression of epithelial adhesion protein E-cadherin,[8],increased
same,expression of mesenchymal protein N-cadherin,[8],decreased
same,expression of mesenchymal protein vimentin,[8],decreased
"COc1cccc2c1C(=O)c1c(O)c3c(c(O)c1C2=O)C[C@@](O)(C(=O)CO)C[C@@H]3O[C@H]1C[C@H](N)[C@H](O)[C@H](C)O1 [Doxorubicin, reference compound]",IC50,SW480 cells [1],0.91 ± 0.08 µM
same,IC50,SW620 cells [2],1.06 ± 0.11 µM
same,IC50,LoVo cells,0.83 ± 0.12 µM
same,IC50,HT-29 cells,1.02 ± 0.1 µM
same,IC50,QSG-7701 cells,1.33 ± 0.03 µM
C[C@@H]1O[C@H]2O[C@@H]3[C@@H](C)O[C@@H](c4ccc5c(c4O)C(=O)c4ccc6c(c4C5=O)C(=O)C[C@](C)(O)C6)C[C@H]3O[C@H]2CC1=O [Moromycin B],IC50,SW480 cells [1],0.45 ± 0.06 µM
same,IC50,SW620 cells [2],0.34 ± 0.05 µM
same,IC50,LoVo cells,0.78 ± 0.02 µM
same,IC50,HT-29 cells,0.82 ± 0.04 µM
same,IC50,QSG-7701 cells,1.26 ± 0.15 µM
Cc1cc(O)c2c3c(cc(O)c2c1)C(=O)c1c(ccc([C@H]2C[C@H]4O[C@H]5CC(=O)[C@H](C)O[C@H]5O[C@@H]4[C@@H](C)O2)c1O)C3=O [Landomycin N],IC50,SW480 cells [1],> 20 µM
same,IC50,SW620 cells [2],> 20 µM
same,IC50,LoVo cells,> 20 µM
same,IC50,HT-29 cells,> 20 µM
same,IC50,QSG-7701 cells,> 20 µM
C[C@@H]1O[C@@H](O[C@H]2CC[C@H](O[C@@]3(C)CC(=O)[C@]4(O)C5=C(C=C[C@]4(O)C3)C(=O)c3c(ccc([C@H]4C[C@H]6O[C@H]7CC(=O)[C@H](C)O[C@H]7O[C@@H]6[C@@H](C)O4)c3O)C5=O)O[C@H]2C)C=CC1=O [Saquayamycin B],IC50,SW480 cells [1],0.32 ± 0.03 µM
same,IC50,SW620 cells [2],0.42 ± 0.02 µM
same,IC50,LoVo cells,0.75 ± 0.03 µM
same,IC50,HT-29 cells,0.89 ± 0.02 µM
same,IC50,QSG-7701 cells,1.38 ± 0.14 µM
